This note sets out measurements from patent US20220227804A1, “COMBINATION OF A POLYHYDROXYLATED BILE ACID AND A FARNESOID X RECEPTOR AGONIST” (QING BILE THERAPEUTICS INC., priority 2019, published 2022).

Series [1] has as its system Mdr2^−/− mice. In words: First study: dietary supplementation of Mdr2−/− mice (mouse model of human PSC and PFIC) for 17 weeks. Particulars: mono-treatment, 0.03% OCA or 1% THBA (w/w) in diet, from 3 to 20 weeks of age, female mice.
The test system of series [2] is Mdr2^−/− mice. The conditions noted are these: mouse, in vivo.

Like-named read-outs stand apart in the source and are kept apart here.

On to `CC[C@H]1[C@@H](O)[C@@H]2[C@H](CC[C@]3(C)[C@@H]([C@H](C)CCC(=O)O)CC[C@@H]23)[C@@]2(C)CC[C@@H](O)C[C@@H]12` [OCA, Obeticholic acid, reference compound], for which the adverse effects result in series [1] is “no significant, obvious, adverse effects”.
Consider `C[C@H](CCC(=O)O)[C@H]1CC[C@H]2[C@@H]3[C@H](O)[C@H](O)[C@@H]4C[C@H](O)CC[C@]4(C)[C@H]3C[C@H](O)[C@]12C` [THBA, 3α, 6α, 7α, 12α-tetrahydroxy-5β-cholan-24-oic acid], for which, in series [2], the adverse effects result is on record as “no significant, obvious, adverse effects”. The “liver indicator profiles (bilirubin, ALT, ALP, total bile acids in plasma)” value in series [1] is reported as “significantly improved liver indicator profiles”.
